Test systems include HOP-92 NSCLC; OVCAR-8 ovarian; SF-295 CNS; EKVX NSCLC; 786-0 renal; ACHN renal; HL-60(TB) leukemia; UACC-62 melanoma; KM12 colon; SK-MEL-5 melanoma.
What all share (assay): inhibition of tumour cell growth, NCI panel, 48 h

Several values for one entry are separate records, joined by “and”; a condition that tells them apart may be missing. Equal entries are not always repeated.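 Cultured in 96-well plates, cells were exposed to test compound for 48 hours across five concentrations. GI50 = concentration required for 50% inhibition of growth. TGI marks complete inhibition of growth.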

For `O=C1c2nc3n(c2C(=O)c2c1nc1n2CCC1)CCC3`, the TGI was 26.3 µM with HOP-92 NSCLC; 22.5 µM in the experiment with OVCAR-8 ovarian; 17.9 µM with SF-295 CNS; 31.2 µM in the experiment on EKVX NSCLC; greater than 47.8 µM in the experiment on 786-0 renal; 23.9 µM in the experiment with ACHN renal. The TGI in the experiment with HL-60(TB) leukemia is greater than 36.6 µM; in the experiment on UACC-62 melanoma, 5.5 µM and 3.65 µM; in the experiment on KM12 colon, 17 µM; in the experiment with SK-MEL-5 melanoma, 3.05 µM and 2.78 µM. The GI50 in the experiment on OVCAR-8 ovarian was 7.87 µM; in the experiment on SF-295 CNS, 6.72 µM; with 786-0 renal it was 9.25 µM; with UACC-62 melanoma, 2.21 µM; with KM12 colon, 5.63 µM; in the experiment with SK-MEL-5 melanoma, 1.68 µM.

For `O=C(NO)c1ccc(O)c(O)c1`, the TGI in the experiment on HOP-92 NSCLC, in the experiment with OVCAR-8 ovarian, with SF-295 CNS, in the experiment on EKVX NSCLC, with 786-0 renal and with ACHN renal was greater than 100 µM throughout. The TGI was 56 µM in the experiment on HL-60(TB) leukemia, greater than 100 µM with UACC-62 melanoma, greater than 100 µM in the experiment with KM12 colon and greater than 100 µM in the experiment on SK-MEL-5 melanoma.

Consider `O=C(NS(=O)(=O)c1ccccc1)C(Cc1ccccc1)C(Cc1ccccc1)C(=O)NS(=O)(=O)c1ccccc1` (stereo unspecified), for which the TGI in the experiment on HOP-92 NSCLC, in the experiment on OVCAR-8 ovarian, with SF-295 CNS, in the experiment on EKVX NSCLC, with 786-0 renal and in the experiment on ACHN renal was greater than 100 µM each time. Besides, the TGI in the experiment with HL-60(TB) leukemia, with UACC-62 melanoma, with KM12 colon and in the experiment with SK-MEL-5 melanoma was greater than 100 µM each time.

Consider `OCCN1CCN(CC/C=C2\c3ccccc3Sc3ccc(Cl)cc32)CC1`, for which the GI50 in the experiment with HOP-92 NSCLC is 1.02 µM and 2.44 µM; in the experiment with OVCAR-8 ovarian it was 7.95 µM and 7.2 µM; in the experiment on SF-295 CNS, 1.79 µM and 2.17 µM; in the experiment on EKVX NSCLC, 5.78 µM and 6.11 µM; in the experiment on 786-0 renal, 1.82 µM and 3.06 µM; in the experiment on ACHN renal, 5.06 µM and 6.56 µM. Further, the GI50 is 4.04 µM in the experiment on HL-60(TB) leukemia; 1.73 µM and 1.77 µM in the experiment on UACC-62 melanoma; 2.73 µM and 2.81 µM in the experiment on KM12 colon; 1.61 µM and 1.67 µM in the experiment on SK-MEL-5 melanoma. The TGI was 6.1 µM and 14.1 µM in the experiment with HOP-92 NSCLC; 28.3 µM and 19.8 µM in the experiment with OVCAR-8 ovarian; 5.07 µM and 5.33 µM with SF-295 CNS; 23.7 µM and 21 µM in the experiment on EKVX NSCLC; 3.65 µM and 8.58 µM in the experiment on 786-0 renal; 17 µM and 17.9 µM in the experiment with ACHN renal. For the same molecule, the TGI in the experiment with HL-60(TB) leukemia was 3.71 µM and 9.92 µM; in the experiment on UACC-62 melanoma, 3.61 µM and 3.44 µM; with KM12 colon it was 6.02 µM and 7.34 µM; with SK-MEL-5 melanoma it was 3.01 µM and 3.04 µM.

`Cc1cccc2nc3cccc(C(=O)NCCN(C)C)c3nc12`: the TGI is 4.12 µM with HOP-92 NSCLC; 15.8 µM with OVCAR-8 ovarian; 14.3 µM with SF-295 CNS; 2.03 µM in the experiment on EKVX NSCLC; 14.6 µM in the experiment on 786-0 renal; 5.8 µM in the experiment with ACHN renal. Moreover, the TGI with HL-60(TB) leukemia was found to be 12 µM; in the experiment with UACC-62 melanoma, 2.42 µM; in the experiment with KM12 colon, 77.3 µM; in the experiment on SK-MEL-5 melanoma, 1.97 µM.

As for `COC1=C2CC(C)CC(OC)C(O)C(C)/C=C(\C)C(OC(N)=O)C(OC)/C=C\C=C(/C)C(=O)NC(=C(/C=N/N3CCCCC3)C1=O)C2=O` (stereo unspecified), the TGI in the experiment with HOP-92 NSCLC worked out at 35.4 µM; in the experiment on OVCAR-8 ovarian, 16.6 µM; in the experiment with SF-295 CNS it was 30.1 µM; in the experiment on EKVX NSCLC, 14.7 µM; in the experiment on 786-0 renal, 22.8 µM; with ACHN renal, 28.8 µM. Further, the TGI amounted to 4.32 µM with HL-60(TB) leukemia, 48.1 µM with UACC-62 melanoma, 25.1 µM in the experiment with KM12 colon and 29.9 µM in the experiment with SK-MEL-5 melanoma.

As to `CCc1nc(N)nc(N)c1-c1ccc(Cl)c(N=CN(C)C)c1`, the TGI in the experiment with HOP-92 NSCLC, in the experiment with OVCAR-8 ovarian, in the experiment on SF-295 CNS, in the experiment on EKVX NSCLC, in the experiment with 786-0 renal and with ACHN renal was greater than 100 µM throughout. For the same molecule, the TGI is greater than 90.3 µM with HL-60(TB) leukemia, greater than 100 µM in the experiment with UACC-62 melanoma, greater than 100 µM with KM12 colon and greater than 100 µM in the experiment on SK-MEL-5 melanoma.

Turning to `Cc1cc(OCc2nnc3n2N=C(c2ccc(Cl)cc2Cl)CS3)ccc1Cl`, the GI50 in the experiment with HOP-92 NSCLC was greater than 100 µM; with OVCAR-8 ovarian, 45 µM; with SF-295 CNS, 28.4 µM; in the experiment with EKVX NSCLC, 6.89 µM; with 786-0 renal, greater than 100 µM; in the experiment with ACHN renal, 45.4 µM. Further, the GI50 was 45.9 µM in the experiment with HL-60(TB) leukemia, 34.4 µM with UACC-62 melanoma, 53.3 µM in the experiment with KM12 colon and 25.6 µM in the experiment with SK-MEL-5 melanoma. In addition, the TGI was greater than 100 µM in the experiment on HOP-92 NSCLC; greater than 100 µM in the experiment with OVCAR-8 ovarian; greater than 100 µM in the experiment with SF-295 CNS; 81.2 µM with EKVX NSCLC; greater than 100 µM with 786-0 renal; greater than 100 µM with ACHN renal. Also, the TGI in the experiment with HL-60(TB) leukemia, with UACC-62 melanoma, in the experiment with KM12 colon and in the experiment with SK-MEL-5 melanoma was greater than 100 µM throughout.

Regarding `Cn1cnc([N+](=O)[O-])c1Sc1ncn[nH]1`, the GI50 was 29.2 µM with HOP-92 NSCLC; greater than 100 µM in the experiment on OVCAR-8 ovarian; greater than 100 µM in the experiment with SF-295 CNS; greater than 100 µM in the experiment on EKVX NSCLC; greater than 100 µM in the experiment with 786-0 renal; 76.1 µM in the experiment with ACHN renal. The GI50 was 75.5 µM with HL-60(TB) leukemia, 96.3 µM in the experiment on UACC-62 melanoma, greater than 100 µM in the experiment on KM12 colon and greater than 100 µM with SK-MEL-5 melanoma. The TGI in the experiment on HOP-92 NSCLC, in the experiment with OVCAR-8 ovarian, in the experiment with SF-295 CNS, in the experiment on EKVX NSCLC, with 786-0 renal and in the experiment on ACHN renal was greater than 100 µM each time. Further, the TGI in the experiment on HL-60(TB) leukemia, in the experiment on UACC-62 melanoma, in the experiment with KM12 colon and with SK-MEL-5 melanoma was greater than 100 µM throughout.

For the molecule `O=C1OC(CN2CCOCC2)CN1/N=C/c1ccc([N+](=O)[O-])o1` (stereo unspecified), the TGI in the experiment on HOP-92 NSCLC, in the experiment with OVCAR-8 ovarian, with SF-295 CNS, in the experiment with EKVX NSCLC, in the experiment on 786-0 renal and with ACHN renal was greater than 100 µM in each case. The TGI with HL-60(TB) leukemia was greater than 100 µM; with UACC-62 melanoma, 99.2 µM; with KM12 colon, 45.8 µM; in the experiment with SK-MEL-5 melanoma it was 63 µM.
